This is an account of results in patent publication US12581252B2, “Substituted pyrrolo[3,4-b]pyridines as PI3K-α inhibitors” (Relay Therapeutics, Inc., priority 2020, dated 2026).

A value given as a limit tells only on which side of the number the result lay.

In the assay the target is H1047R PIK3CA enzyme (Homo sapiens, UniProt P42336, H1047R). The assay is described as follows: ADP-Glo Biochemical PIK3CA Kinase Assay.
Sequence of H1047R PIK3CA enzyme (P42336 whole entry H1047R): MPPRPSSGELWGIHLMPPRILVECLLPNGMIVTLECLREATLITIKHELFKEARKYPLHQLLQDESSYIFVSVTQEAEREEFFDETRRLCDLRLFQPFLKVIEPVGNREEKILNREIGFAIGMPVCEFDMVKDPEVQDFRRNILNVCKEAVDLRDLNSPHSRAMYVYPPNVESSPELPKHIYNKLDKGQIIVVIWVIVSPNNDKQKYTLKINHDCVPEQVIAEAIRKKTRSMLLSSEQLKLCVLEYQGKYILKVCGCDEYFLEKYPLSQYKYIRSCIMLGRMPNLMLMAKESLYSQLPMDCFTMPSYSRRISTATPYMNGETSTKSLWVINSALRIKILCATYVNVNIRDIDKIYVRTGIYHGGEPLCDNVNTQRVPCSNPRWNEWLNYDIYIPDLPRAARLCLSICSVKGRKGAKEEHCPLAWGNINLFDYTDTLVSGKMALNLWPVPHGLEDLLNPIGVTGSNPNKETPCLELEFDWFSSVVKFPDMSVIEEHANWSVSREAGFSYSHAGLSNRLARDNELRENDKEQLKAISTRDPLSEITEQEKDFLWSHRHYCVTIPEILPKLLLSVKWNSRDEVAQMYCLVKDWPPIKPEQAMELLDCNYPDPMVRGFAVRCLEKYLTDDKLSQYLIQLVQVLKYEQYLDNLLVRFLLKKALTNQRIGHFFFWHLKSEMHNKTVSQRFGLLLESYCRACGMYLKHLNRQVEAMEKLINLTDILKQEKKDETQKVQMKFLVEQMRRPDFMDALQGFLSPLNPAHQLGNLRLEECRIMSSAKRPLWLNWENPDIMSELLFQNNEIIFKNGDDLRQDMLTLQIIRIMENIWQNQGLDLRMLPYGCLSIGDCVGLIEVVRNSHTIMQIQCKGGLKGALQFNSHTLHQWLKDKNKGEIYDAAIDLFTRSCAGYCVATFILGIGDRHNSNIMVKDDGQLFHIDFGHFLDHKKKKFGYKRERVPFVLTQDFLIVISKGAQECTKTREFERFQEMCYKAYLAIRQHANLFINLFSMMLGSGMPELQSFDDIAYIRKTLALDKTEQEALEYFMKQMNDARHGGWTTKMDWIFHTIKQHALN
Sequence of H1047R PIK3CA enzyme (P27986 whole entry partner): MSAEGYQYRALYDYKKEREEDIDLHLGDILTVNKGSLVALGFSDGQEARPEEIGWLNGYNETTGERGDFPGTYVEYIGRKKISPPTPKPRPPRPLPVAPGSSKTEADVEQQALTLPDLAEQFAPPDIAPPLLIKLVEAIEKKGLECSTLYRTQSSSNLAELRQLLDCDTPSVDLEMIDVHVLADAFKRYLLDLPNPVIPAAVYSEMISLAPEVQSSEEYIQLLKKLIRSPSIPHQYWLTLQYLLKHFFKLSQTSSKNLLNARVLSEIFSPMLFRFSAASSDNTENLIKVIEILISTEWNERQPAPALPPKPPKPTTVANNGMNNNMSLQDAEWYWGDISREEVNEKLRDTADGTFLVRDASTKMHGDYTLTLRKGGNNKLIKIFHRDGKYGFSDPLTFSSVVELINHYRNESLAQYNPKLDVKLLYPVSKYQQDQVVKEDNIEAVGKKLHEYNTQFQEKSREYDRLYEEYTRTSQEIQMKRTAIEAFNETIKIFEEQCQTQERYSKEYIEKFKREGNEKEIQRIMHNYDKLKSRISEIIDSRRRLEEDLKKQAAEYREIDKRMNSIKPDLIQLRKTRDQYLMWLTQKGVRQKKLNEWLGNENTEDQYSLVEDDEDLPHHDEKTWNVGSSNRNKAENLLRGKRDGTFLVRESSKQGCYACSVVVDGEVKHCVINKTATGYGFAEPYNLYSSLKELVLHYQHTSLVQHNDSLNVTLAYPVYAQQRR
One may read the IC50 as the concentration that gives 50% inhibition. Molecule `O=C1NC(c2cc(F)ccc2Cl)c2c(Nc3n[nH]c4ccccc34)cc(Br)cc21` (centres unmarked) [Compound I-1315] displayed an IC50 of 10 to 100 µM.

`O=C1NC(c2cc(F)ccc2Cl)c2c(NC(=O)N3CCc4ccc(=O)[nH]c43)cc(Br)cc21` (centres unmarked) [Compound I-1429] had an IC50 of 10 to 100 µM.

`O=C(Nc1cc(-c2ccc(=O)n(C3CC3)c2)cc2c1[C@H](c1cc(F)ccc1Cl)NC2=O)c1cc(F)cc(C(F)(F)F)c1` [Compound I-745] gave an IC50 of at most 0.1 µM.

Regarding `O=C1NC(c2cc(F)ccc2Cl)c2c1cc(-c1ccc3ncnn3c1)cc2N(CC(=O)N1CCCCC1)C(=O)C(F)(F)F` (centres unmarked) [Compound I-2001], the half-maximal inhibitory concentration (IC50) lay in the range of 10 to 100 µM.

Molecule `O=C1NC(c2cc(F)ccc2Cl)c2c(NC(=O)N3CC4(CC4)c4cc(F)ccc43)cc(Br)cc21` (centres unmarked) [Compound I-1512] gave an IC50 of 0.1 to 0.5 µM.

`Cc1ccccc1C1NC(=O)c2nccc(NC(=O)c3csc4ccccc34)c21` (centres unmarked) [Compound I-7] gave an IC50 of 0.1 to 0.5 µM.

In turn, `N#Cc1cc(NC(=O)N2C[C@@](O)(C(F)(F)F)c3ccccc32)c2c(c1)C(=O)N[C@H]2c1cc(F)ccc1Cl` (single isomer, unassigned) [Compound I-2563] gave an IC50 of 1 to 10 µM.

The molecule `N#CC(C(=O)Nc1cc(-c2ccc3ncnn3c2)cc2c1C(c1cc(F)ccc1Cl)NC2=O)c1ccccc1` (centres unmarked) [Compound I-1834] had an IC50 of 1 to 10 µM.

As to `O=C1NC(c2cc(F)ccc2Cl)c2c(NC(=O)N3CCc4ccc(C(F)(F)F)cc43)cccc21` (centres unmarked) [Compound I-2447], the IC50 fell in the range of 1 to 10 µM.

On to `O=C1NC(c2cc(F)ccc2Cl)c2c1cc(-c1ccc3ncnn3c1)cc2-n1ccc2c(F)cc(C(F)(F)F)cc2c1=O` (centres unmarked) [Compound I-2016], for which the IC50 lay within 1 to 10 µM.

The molecule `CNc1cc(NC(=O)N2C[C@@](O)(C(F)(F)F)c3cc(F)ccc32)c2c(n1)C(=O)N[C@@H]2c1cc(F)ccc1Cl` (single isomer, unassigned) [Compound I-2645] came in with an IC50 of 1 to 10 µM.

On to `O=C1NC(c2cc(F)ccc2Cl)c2c(NC(=O)N3C[C@H](O)[C@@H](C(F)(F)F)C3)cc(-c3ccc4ncnn4c3)cc21` (single isomer, unassigned) [Compound I-1902], for which the IC50 is 1 to 10 µM.

In turn, `CC(C)(C)C(=O)Nc1cc(Br)cc2c1C(c1cc(F)ccc1Cl)NC2=O` (centres unmarked) [Compound I-1139] showed an IC50 of 1 to 10 µM.

Turning to `O=C(Nc1cc(Br)cc2c1[C@H](c1cc(F)cc(F)c1Cl)NC2=O)c1cc(F)cc(C(F)(F)F)c1` [Compound I-805], the IC50 is at most 0.1 µM.

For the molecule `O=C(Nc1cc(-c2ccc3nnc(Cl)n3c2)cc2c1[C@H](c1cc(F)ccc1Cl)NC2=O)c1cc(F)cc(C(F)(F)F)c1` [Compound I-1734], the IC50 was at most 0.1 µM.

Molecule `O=C(Nc1cccc2c1C(C1CCCCN1)NC2=O)c1cc(F)cc(C(F)(F)F)c1` (centres unmarked) [Compound I-1675] showed an IC50 of 1 to 10 µM.

For `CCC1CCN(C(=O)Nc2cccc3c2C(c2cc(F)ccc2Cl)NC3=O)C1` (centres unmarked) [Compound I-2420], the IC50 is 10 to 100 µM.

For the molecule `N#CCc1cc(NC(=O)N2C[C@@](O)(C(F)(F)F)c3cc(F)ccc32)c2c(c1)C(=O)N[C@H]2c1cc(F)ccc1Cl` (single isomer, unassigned) [Compound I-2624], the IC50 lay within 1 to 10 µM.

In the case of `CNC(=O)c1cc(NC(=O)c2nsc3ccccc23)c2c(c1)C(=O)N[C@H]2c1ccccc1C` [Compound I-163], the IC50 was at most 0.1 µM.

Turning to `COc1cccc(C2NC(=O)c3cccc(NC(=O)c4cc(F)cc(C(F)(F)F)c4)c32)c1` (centres unmarked) [Compound I-687], the IC50 lay in the range of 10 to 100 µM.

`CC(=O)N1CCCC(C(=O)Nc2cc(-c3ccc4ncnn4c3)cc3c2C(c2cc(F)ccc2Cl)NC3=O)C1` (centres unmarked) [Compound I-1743] returned an IC50 of 10 to 100 µM.

In the case of `O=C1N[C@H](c2cc(F)ccc2Cl)c2c(NC(=O)N3C[C@H](O)C[C@@H](C(F)(F)F)C3)cccc21` (single isomer, unassigned) [Compound I-2236], the IC50 was in the range of 10 to 100 µM.

`Cc1ccc2c(c1)N(C(=O)Nc1cccc3c1CN(C)C3=O)CC2` [Compound I-405] showed an IC50 of 10 to 100 µM.

Molecule `O=C(Nc1cccc2c1C(c1cc(F)ccc1Cl)NC2=O)c1cc(Cl)cc(F)c1F` (centres unmarked) [Compound I-767] displayed an IC50 of 0.1 to 0.5 µM.

Turning to `O=C(Nc1cc(-c2ccc3ncc(C(F)F)n3c2)cc2c1[C@@H](c1cc(F)ccc1Cl)NC2=O)c1cc(F)cc(C(F)(F)F)c1` [Compound I-1936], the IC50 was in the range of 0.5 to 1 µM.

Molecule `O=C(Nc1cc(Oc2ccncn2)cc2c1C(c1cc(F)ccc1Cl)NC2=O)c1cc(F)cc(C(F)(F)F)c1` (centres unmarked) [Compound I-1052] returned an IC50 of 0.1 to 0.5 µM.

Regarding `N#Cc1ccc(C(=O)Nc2cc(Br)cc3c2C(c2cc(F)ccc2Cl)NC3=O)cc1` (centres unmarked) [Compound I-517], the IC50 lay within 10 to 100 µM.

Regarding `CC1(C(=O)Nc2cc(Br)cc3c2C(c2cc(F)ccc2Cl)NC3=O)CCCc2ccccc21` (centres unmarked) [Compound I-634], the IC50 fell in the range of 1 to 10 µM.

The molecule `O=C(Nc1cc(-c2cc(F)n3ncnc3c2)cc2c1[C@H](c1cc(F)ccc1Cl)NC2=O)c1cc(F)cc(C(F)(F)F)c1` [Compound I-1927] displayed an IC50 of at most 0.1 µM.

On to `COc1ccc(Oc2cc(NC(=O)c3cc(F)cc(C(F)(F)F)c3)c3c(c2)C(=O)NC3c2cc(F)ccc2Cl)nn1` (centres unmarked) [Compound I-1147], for which the IC50 was at most 0.1 µM.

For the molecule `O=C(Nc1cccc2c1C(c1cc(-c3ccccc3)ccc1Cl)NC2=O)c1cc(F)cc(C(F)(F)F)c1` (centres unmarked) [Compound I-486], the IC50 was in the range of 1 to 10 µM.

On to `CC(C)(O)c1cc(NC(=O)c2cc(F)cc(C(F)(F)F)c2)c2c(c1)C(=O)N[C@@H]2c1cc(F)ccc1C(F)F` [Compound I-263], for which the IC50 fell in the range of 10 to 100 µM.

Turning to `O=C1NC(c2cc(F)ccc2Cl)c2c(Nc3cn[nH]c3)cc(Br)cc21` (centres unmarked) [Compound I-2056], the IC50 fell in the range of 10 to 100 µM.

`O=C(Nc1cc(Br)cc2c1[C@@H](c1cc(F)ccc1F)NC2=O)c1cc(F)cc(C(F)(F)F)c1` [Compound I-671] displayed an IC50 of 1 to 10 µM.

`Cc1ccccc1[C@H]1NC(=O)c2cc(C(=O)NCC(F)F)cc(NC(=O)c3nsc4ccccc34)c21` [Compound I-165] gave an IC50 of 0.1 to 0.5 µM.

As to `O=C1N[C@@H](c2cc(F)ccc2Cl)c2c(N[C@@H]3CCOc4ccccc43)cc(-c3cnn(C(F)F)c3)nc21` [Compound I-2081], the IC50 fell in the range of 1 to 10 µM.

In the case of `O=C1Cc2cc(NC(=O)c3cc(F)cc(C(F)(F)F)c3)ccc2C(c2ccccc2Cl)N1` (centres unmarked) [Compound I-1177], the IC50 was 1 to 10 µM.

As for `Cc1ccccc1[C@H]1NC(=O)c2cc(CO)cc(NC(=O)c3nsc4ccccc34)c21` [Compound I-307], the IC50 lay in the range of 1 to 10 µM.

Consider `O=C1NC(c2cc(F)ccc2Cl)c2c(NC(=O)N3CCCOCC3)cc(Br)cc21` (centres unmarked) [Compound I-574], for which the IC50 fell in the range of 10 to 100 µM.

Regarding `O=C(Nc1cc(OCC(O)CCO)cc2c1C(c1cc(F)ccc1Cl)NC2=O)c1cc(F)cc(C(F)(F)F)c1` (centres unmarked) [Compound I-1414], the IC50 was at most 0.1 µM.

The molecule `Cc1ccccc1-n1[nH]c(=O)c2cccc(NC(=O)c3csc4ccccc34)c21` [Compound I-68] came in with an IC50 of 0.5 to 1 µM.

In turn, `[2H][C@]1(c2cc(F)ccc2Cl)NC(=O)c2cccc(NC(=O)N3C[C@](O)(C(F)(F)F)c4cc(F)ccc43)c21` (single isomer, unassigned) [Compound I-2684] showed an IC50 of 10 to 100 µM.

On to `N#C[C@H]1C[C@@H](c2cc(NC(=O)c3cc(F)cc(C(F)(F)F)c3)c3c(c2)C(=O)N[C@H]3c2cc(F)ccc2Cl)C1` (single isomer, unassigned) [Compound I-1328], for which the IC50 fell in the range of 0.1 to 0.5 µM.

In turn, `O=C1NC(c2cc(F)ccc2Cl)c2c1cc(-c1ccc3ncnn3c1)cc2C1=CCNCC1` (centres unmarked) [Compound I-1997] gave a 50% inhibitory concentration (IC50) of 10 to 100 µM.

Regarding `O=C(Cc1n[nH]c2ccccc12)Nc1cc(Br)cc2c1C(c1cc(F)ccc1Cl)NC2=O` (centres unmarked) [Compound I-955], the IC50 fell in the range of 10 to 100 µM.

`CNc1cc(NC(=O)N2C[C@](O)(C(F)(F)F)c3cc(F)ccc32)c2c(n1)C(=O)N[C@H]2c1cc(F)ccc1Cl` (single isomer, unassigned) [Compound I-2647]: the IC50 lay within 0.1 to 0.5 µM.

Molecule `O=C1N[C@H](c2cc(F)ccc2Cl)c2c(NC(=O)N3C[C@H](O)c4cc(F)ccc43)cc(-n3cccn3)cc21` (single isomer, unassigned) [Compound I-2367] showed an IC50 of 1 to 10 µM.

For `Cn1c(Cl)cc(C(=O)Nc2cc(Br)cc3c2[C@@H](c2cc(F)ccc2Cl)NC3=O)cc1=O` [Compound I-2096], the IC50 fell in the range of 10 to 100 µM.

The molecule `N#C[C@H]1C[C@@H](Oc2cc(NC(=O)c3cc(F)cc(C(F)(F)F)c3)c3c(c2)C(=O)N[C@@H]3c2cc(F)ccc2Cl)C1` [Compound I-1333] displayed an IC50 of 1 to 10 µM.

`C[S@@](=O)(Cc1cc(NC(=O)c2cc(F)cc(C(F)(F)F)c2)c2c(c1)C(=O)N[C@H]2c1cc(F)ccc1Cl)=NC#N` (single isomer, unassigned) [Compound I-1565] returned an IC50 of at most 0.1 µM.

`O=C(Nc1cc(-c2ccnn2CCO)cc2c1C(c1cc(F)ccc1Cl)NC2=O)c1cc(F)cc(C(F)(F)F)c1` (centres unmarked) [Compound I-1340] came in with an IC50 of at most 0.1 µM.

Molecule `O=C1NC(c2cc(F)ccc2Cl)c2c(Nc3nccc4cccnc34)cc(Br)cc21` (centres unmarked) [Compound I-761] returned an IC50 of 10 to 100 µM.

Molecule `O=C1NC(c2cc(F)ccc2Cl)c2c(NC(=O)N3CCC4C3[C@H]4C(F)(F)F)cccc21` (single isomer, unassigned) [Compound I-2328] showed an IC50 of 10 to 100 µM.

On to `O=C1NC(c2cc(F)ccc2Cl)c2c(NC(=O)N3CC(=O)N4CCCC4C3)cc(Br)cc21` (centres unmarked) [Compound I-766], for which the IC50 is 10 to 100 µM.

`CC(=O)Nc1cc(NC(=O)N2C[C@@](O)(C(F)(F)F)c3cc(F)ccc32)c2c(c1)C(=O)N[C@@H]2c1cc(F)ccc1Cl` (single isomer, unassigned) [Compound I-2575] came in with an IC50 of 1 to 10 µM.

`N#Cc1cc(-c2cc(NC(=O)c3cc(F)cc(C(F)(F)F)c3)c3c(c2)C(=O)N[C@@H]3c2cc(F)ccc2Cl)cn2ncnc12` [Compound I-1880] showed an IC50 of 0.5 to 1 µM.

Turning to `CC(C)(C#N)c1cc(NC(=O)c2cc(F)cc(C(F)(F)F)c2)c2c(c1)C(=O)NC2c1cc(F)ccc1Cl` (centres unmarked) [Compound I-1268], the IC50 is at most 0.1 µM.

Consider `O=C(Nc1cccc2c1C(C1CCCCC13CC3)NC2=O)c1cc(F)cc(C(F)(F)F)c1` (racemic) [Compound I-1912], for which the IC50 is 1 to 10 µM.

Molecule `N#Cc1cnccc1-c1cc(NC(=O)c2cc(F)cc(C(F)(F)F)c2)c2c(c1)C(=O)N[C@@H]2c1cc(F)ccc1Cl` (stereo in doubt) [Compound I-1231] displayed an IC50 of 0.5 to 1 µM.
